Test results reported in the supplement of paper PMC10307832.

Legend:
Experiment in all cases: relative viability (nuclei count vs DMSO), 5 days (fraction); higher = more cells survive
GSK126 = compound: CC[C@H](C)N1C=C(C2=C(C=C(C=C21)C3=CN=C(C=C3)N4CCNCC4)C(=O)NCC5=C(C=C(NC5=O)C)C)C [GSK126]
Outline: (§1)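 Lung cancer cell lines in 1536-well plates were exposed by pinning to five library-drug doses (not always all listed) √10 apart, following an overnight hold at 37 °C. MetaXpress counted Hoechst-stained nuclei from 4× images taken after 5 days without medium change. Viability is the median ratio of treated-well to vehicle-well nuclei across plates. Plates required control CV below 25% and at least one doubling.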

MLN4924 = compound: NS(=O)(=O)OC[C@@H]1C[C@@H](n2ccc3c(N[C@H]4CCc5ccccc54)ncnc32)C[C@@H]1O [MLN4924]
Outline: as §1

Carboplatin = compound: C1CC(C1)(C(=O)O)C(=O)O.[NH2-].[NH2-].[Pt+2] [Carboplatin]
Outline: as §1

Cell Line | relative viability (GSK126; 0.08 µM) | relative viability (GSK126; 0.253 µM) | relative viability (GSK126; 0.8 µM) | relative viability (GSK126; 2.53 µM) | relative viability (GSK126; 8 µM) | relative viability (MLN4924; 0.04 µM) | relative viability (MLN4924; 0.1265 µM) | relative viability (MLN4924; 0.4 µM) | relative viability (MLN4924; 1.265 µM) | relative viability (MLN4924; 4 µM) | relative viability (Carboplatin; 0.08 µM) | relative viability (Carboplatin; 0.253 µM) | relative viability (Carboplatin; 0.8 µM) | relative viability (Carboplatin; 2.53 µM) | relative viability (Carboplatin; 8 µM)
BEN | 1.1 | 0.997 | 0.914 | 1.04 | 0.924 | 0.729 | 0.627 | 0.408 | 0.197 | 0.219 | 1.11 | 0.969 | 0.987 | 0.904 | 0.893
NCI-H2085 | 1.06 | 1.05 | 0.958 | 0.943 | 1.02 | 0.978 | 1.01 | 1.12 | 0.772 | 0.541 | 1.08 | 1 | 0.981 | 1.01 | 0.905
LCLC-103H | 1.02 | 1.03 | 1.01 | 0.994 | 1.01 | 0.949 | 1.02 | 0.912 | 0.282 | 0.312 | 1.03 | 0.989 | 0.992 | 1.07 | 0.834
ABC-1 | 1.11 | 1.03 | 0.992 | 1.15 | 1.05 | 1.06 | 0.965 | 0.384 | 0.249 | 0.283 | 1.04 | 0.873 | 0.985 | 0.88 | 0.587
NCI-H661 | 1.03 | 0.945 | 0.986 | 1.03 | 1 | 0.894 | 0.857 | 0.686 | 0.421 | 0.426 | 0.993 | 1.01 | 0.984 | 0.938 | 0.903
NCI-H1792 | 0.998 | 0.837 | 1.04 | 0.934 | 0.879 | 0.929 | 0.954 | 1.1 | 0.412 | 0.4 | 1.07 | 0.918 | 0.83 | 0.773 | 0.723
H3255 | 1.04 | 1.01 | 0.993 | 1.06 | 0.963 | 0.825 | 0.721 | 0.391 | 0.246 | 0.328 | 0.979 | 1.11 | 1.01 | 0.939 | 0.784
NCI-H1563 | 1.04 | 0.999 | 1.06 | 1.04 | 0.965 | 1.42 | 1.21 | 0.818 | 0.494 | 0.511 | 0.963 | 1 | 1.03 | 0.946 | 1.02
EMC-BAC-2 | 0.978 | 0.965 | 0.984 | 0.989 | 1.16 | 0.876 | 0.906 | 0.359 | 0.243 | 0.257 | 1.05 | 0.942 | 1.16 | 1.2 | 0.855
NCI-H1666 | 0.966 | 1.03 | 0.984 | 0.95 | 1.07 | 1.02 | 0.915 | 0.632 | 0.35 | 0.38 | 1.03 | 1.02 | 0.987 | 0.913 | 0.797
HCC-366 | 1.12 | 1.03 | 1.02 | 1.01 | 1 | 1.05 | 1.02 | 0.674 | 0.228 | 0.0735 | 1.04 | 0.974 | 1.03 | 1.02 | 0.95
LCLC-97TM1 | 0.999 | 0.965 | 0.91 | 1.02 | 1.11 | 0.929 | 0.657 | 0.31 | 0.073 | 0.0774 | 1.13 | 0.978 | 1.09 | 1.03 | 0.837
NCI-H2405 | 1.03 | 0.946 | 0.98 | 0.984 | 1.03 | 1.06 | 0.979 | 0.586 | 0.29 | 0.27 | 1.1 | 1 | 1.05 | 1.03 | 0.885
NCI-H1915 | 1.05 | 0.978 | 1.01 | 0.973 | 0.994 | 0.958 | 0.911 | 0.692 | 0.219 | 0.224 | 1.03 | 1.02 | 0.971 | 0.932 | 0.737
NCI-H650 | 0.991 | 0.962 | 0.939 | 0.914 | 1.03 | 0.618 | 0.668 | 0.268 | 0.183 | 0.194 | 0.988 | 0.874 | 0.959 | 0.864 | 0.668
NCI-H1650 | 1.05 | 0.948 | 0.954 | 1.02 | 1.03 | 0.708 | 0.578 | 0.286 | 0.171 | 0.201 | 0.995 | 0.888 | 0.933 | 0.812 | 0.638
NCI-H596 | 0.983 | 0.9 | 0.965 | 1.01 | 0.981 | 0.973 | 1.1 | 0.554 | 0.854 | 0.739 | 0.993 | 0.995 | 0.938 | 0.826 | 0.752
HCC-44 | 1.03 | 1 | 1.01 | 0.869 | 1.05 | 0.635 | 0.683 | 0.219 | 0.217 | 0.225 | 1.04 | 0.92 | 0.949 | 0.915 | 0.723
NCI-H2087 | 1.18 | 0.945 | 1 | 1.15 | 1.17 | 1.02 | 0.969 | 0.491 | 0.16 | 0.0937 | 1.14 | 1.21 | 0.997 | 0.999 | 0.711
NCI-H522 | 1.1 | 0.929 | 1.01 | 0.977 | 0.989 | 0.87 | 0.777 | 0.515 | 0.397 | 0.426 | 1.12 | 0.963 | 0.922 | 0.873 | 0.881
RERF-LC-KJ | 1.12 | 1.1 | 1.02 | 1.01 | 1.05 | 0.879 | 0.738 | 0.233 | 0.211 | 0.228 | 0.978 | 1.02 | 0.939 | 0.88 | 0.702
IA-LM | 1.04 | 0.906 | 0.925 | 0.997 | 0.894 | 0.573 | 0.29 | 0.14 | 0.0648 | 0.0764 | 1.08 | 1.06 | 0.927 | 0.835 | 0.778
